Earlier results in patent US12482537B2, “System of predicting sensitivity of Klebsiella against MeropeneM and method” (priority 2023, dated 2025).

Test system: carbapenem resistant Klebsiella pneumoniae
Conditions: isolates from 2014 to 2017 (252/403)

For C[C@@H](O)[C@H]1C(=O)N2C(C(=O)O)=C(S[C@@H]3CN[C@H](C(=O)N(C)C)C3)[C@H](C)[C@H]12 [Meropenem], the “resistance rate against meropenem” value is listed as 62.5%.
